Experiments:
[1] = target: Histamine H2 receptor (Homo sapiens, UniProt P25021)
[2] = target: Estrogen receptor beta (Homo sapiens, UniProt Q92731)
[3] = target: Beta-3 adrenergic receptor (Homo sapiens, UniProt P13945)
[4] = target: Substance-P receptor (Homo sapiens, UniProt P25103)
[5] = target: T1, D(4) dopamine receptor (Homo sapiens, UniProt P21917)
T1 sequence (P21917 whole entry): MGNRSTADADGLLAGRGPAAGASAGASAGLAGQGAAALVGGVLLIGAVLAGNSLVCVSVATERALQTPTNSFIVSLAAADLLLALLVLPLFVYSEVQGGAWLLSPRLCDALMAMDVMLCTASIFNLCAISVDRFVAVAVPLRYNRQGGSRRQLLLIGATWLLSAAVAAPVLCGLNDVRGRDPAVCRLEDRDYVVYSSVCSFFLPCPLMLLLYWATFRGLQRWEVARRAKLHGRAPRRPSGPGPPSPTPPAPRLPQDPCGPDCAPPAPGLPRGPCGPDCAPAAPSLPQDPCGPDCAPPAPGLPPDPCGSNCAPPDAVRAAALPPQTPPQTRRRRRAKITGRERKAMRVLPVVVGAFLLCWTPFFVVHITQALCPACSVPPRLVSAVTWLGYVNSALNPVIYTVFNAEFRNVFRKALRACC

[6] = target: T2, Alpha-1A adrenergic receptor (Homo sapiens, UniProt P35348)
T2 sequence (P35348 whole entry): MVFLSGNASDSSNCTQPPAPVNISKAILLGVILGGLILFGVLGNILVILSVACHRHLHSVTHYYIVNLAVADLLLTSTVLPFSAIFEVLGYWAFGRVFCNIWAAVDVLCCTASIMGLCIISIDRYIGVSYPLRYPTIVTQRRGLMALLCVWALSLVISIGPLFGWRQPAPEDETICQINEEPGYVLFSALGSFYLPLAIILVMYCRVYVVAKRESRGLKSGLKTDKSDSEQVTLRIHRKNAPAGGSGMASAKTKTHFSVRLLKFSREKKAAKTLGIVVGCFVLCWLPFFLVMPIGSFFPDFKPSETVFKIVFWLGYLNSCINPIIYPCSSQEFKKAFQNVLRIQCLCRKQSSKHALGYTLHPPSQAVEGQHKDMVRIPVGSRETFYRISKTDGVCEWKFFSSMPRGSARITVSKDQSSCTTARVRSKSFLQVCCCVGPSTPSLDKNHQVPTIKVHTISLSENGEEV

[7] = target: Histamine H1 receptor (Homo sapiens, UniProt P35367); assay type: functional, cell-based
[8] = target: Sodium channel protein type 5 subunit alpha (Homo sapiens, UniProt Q14524); assay type: functional, cell-based
[9] = target: T3, Peroxisome proliferator-activated receptor gamma (Homo sapiens, UniProt P37231); assay type: functional
T3 sequence (P37231 whole entry): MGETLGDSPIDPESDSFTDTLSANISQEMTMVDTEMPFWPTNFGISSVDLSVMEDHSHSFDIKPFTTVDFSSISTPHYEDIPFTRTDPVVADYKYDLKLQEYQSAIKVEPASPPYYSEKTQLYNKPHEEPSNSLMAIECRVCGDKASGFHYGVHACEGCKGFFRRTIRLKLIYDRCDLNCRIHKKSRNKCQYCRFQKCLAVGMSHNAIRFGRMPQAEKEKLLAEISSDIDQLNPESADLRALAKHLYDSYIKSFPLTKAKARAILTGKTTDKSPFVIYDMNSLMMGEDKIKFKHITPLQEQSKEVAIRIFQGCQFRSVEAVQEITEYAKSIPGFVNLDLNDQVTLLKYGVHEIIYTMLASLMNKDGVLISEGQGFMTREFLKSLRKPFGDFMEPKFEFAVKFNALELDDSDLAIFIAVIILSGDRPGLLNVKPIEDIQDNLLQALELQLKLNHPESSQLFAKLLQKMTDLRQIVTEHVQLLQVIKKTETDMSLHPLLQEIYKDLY

[10] = target: Gamma-aminobutyric acid receptor subunit alpha-1/alpha-2/beta-2/gamma-2 (Homo sapiens, UniProt P14867+P18507+P47869+P47870); assay type: functional, cell-based
[11] = target: T4, Androgen receptor (Rattus norvegicus, UniProt P15207); assay type: functional
T4 sequence (P15207 whole entry): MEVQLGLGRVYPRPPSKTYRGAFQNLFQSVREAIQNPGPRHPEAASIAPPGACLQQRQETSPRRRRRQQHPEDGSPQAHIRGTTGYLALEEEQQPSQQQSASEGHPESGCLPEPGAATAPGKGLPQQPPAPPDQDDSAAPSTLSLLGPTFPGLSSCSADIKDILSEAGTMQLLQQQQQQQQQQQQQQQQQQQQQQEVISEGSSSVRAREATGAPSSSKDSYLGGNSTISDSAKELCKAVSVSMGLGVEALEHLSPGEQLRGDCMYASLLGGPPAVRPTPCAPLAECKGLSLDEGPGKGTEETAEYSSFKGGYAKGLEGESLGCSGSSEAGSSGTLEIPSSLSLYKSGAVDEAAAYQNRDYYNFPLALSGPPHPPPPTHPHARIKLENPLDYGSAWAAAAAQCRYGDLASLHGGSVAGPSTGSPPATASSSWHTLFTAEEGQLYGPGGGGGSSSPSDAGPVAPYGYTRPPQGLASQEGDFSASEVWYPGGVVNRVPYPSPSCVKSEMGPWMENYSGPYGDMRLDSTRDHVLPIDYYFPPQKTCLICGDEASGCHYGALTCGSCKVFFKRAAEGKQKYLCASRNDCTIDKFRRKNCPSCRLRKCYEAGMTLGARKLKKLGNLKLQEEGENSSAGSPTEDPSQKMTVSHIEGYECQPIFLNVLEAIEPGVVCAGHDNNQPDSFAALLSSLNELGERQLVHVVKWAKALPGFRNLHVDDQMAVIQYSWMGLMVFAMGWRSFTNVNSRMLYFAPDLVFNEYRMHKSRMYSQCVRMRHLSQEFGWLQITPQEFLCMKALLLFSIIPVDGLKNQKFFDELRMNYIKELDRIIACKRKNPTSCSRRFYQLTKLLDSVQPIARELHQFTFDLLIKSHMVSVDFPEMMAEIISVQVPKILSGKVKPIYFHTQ

[12] = target: T4, Androgen receptor; assay type: functional; remark: listed apart in the source
[13] = target: Gamma-aminobutyric acid type B receptor subunit 1 (Homo sapiens, UniProt Q9UBS5)
[14] = target: 5-hydroxytryptamine receptor 6 (Homo sapiens, UniProt P50406)
[15] = target: 5-hydroxytryptamine receptor 7 (Homo sapiens, UniProt P34969)
Note: assay procedure not described here.

Chain of Histamine H1 receptor (P35367 whole entry): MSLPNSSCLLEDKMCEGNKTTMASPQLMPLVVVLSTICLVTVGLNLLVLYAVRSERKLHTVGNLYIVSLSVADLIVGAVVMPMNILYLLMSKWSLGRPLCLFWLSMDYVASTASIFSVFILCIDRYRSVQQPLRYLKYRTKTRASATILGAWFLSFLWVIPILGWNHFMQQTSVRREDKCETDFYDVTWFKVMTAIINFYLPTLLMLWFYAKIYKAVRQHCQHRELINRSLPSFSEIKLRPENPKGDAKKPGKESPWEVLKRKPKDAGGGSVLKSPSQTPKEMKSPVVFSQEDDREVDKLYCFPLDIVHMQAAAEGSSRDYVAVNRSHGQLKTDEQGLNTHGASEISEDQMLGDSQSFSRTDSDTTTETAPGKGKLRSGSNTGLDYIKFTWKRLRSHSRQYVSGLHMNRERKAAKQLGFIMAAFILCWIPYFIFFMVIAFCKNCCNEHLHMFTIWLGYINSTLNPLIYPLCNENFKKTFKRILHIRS
Chain of Estrogen receptor beta (Q92731 whole entry): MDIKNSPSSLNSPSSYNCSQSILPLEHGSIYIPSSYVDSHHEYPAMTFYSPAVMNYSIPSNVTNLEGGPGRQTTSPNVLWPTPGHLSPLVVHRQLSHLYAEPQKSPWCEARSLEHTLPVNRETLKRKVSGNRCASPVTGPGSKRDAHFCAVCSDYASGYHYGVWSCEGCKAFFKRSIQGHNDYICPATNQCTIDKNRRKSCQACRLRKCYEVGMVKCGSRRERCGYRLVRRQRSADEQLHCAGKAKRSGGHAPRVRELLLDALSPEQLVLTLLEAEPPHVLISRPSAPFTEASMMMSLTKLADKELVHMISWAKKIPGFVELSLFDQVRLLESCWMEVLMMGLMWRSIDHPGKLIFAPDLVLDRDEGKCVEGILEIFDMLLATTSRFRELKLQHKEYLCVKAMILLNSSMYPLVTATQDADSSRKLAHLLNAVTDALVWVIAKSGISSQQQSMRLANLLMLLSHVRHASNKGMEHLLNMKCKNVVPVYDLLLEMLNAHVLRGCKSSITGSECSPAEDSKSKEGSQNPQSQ
Chain of Gamma-aminobutyric acid receptor subunit alpha-1/alpha-2/beta-2/gamma-2 (P14867 whole entry): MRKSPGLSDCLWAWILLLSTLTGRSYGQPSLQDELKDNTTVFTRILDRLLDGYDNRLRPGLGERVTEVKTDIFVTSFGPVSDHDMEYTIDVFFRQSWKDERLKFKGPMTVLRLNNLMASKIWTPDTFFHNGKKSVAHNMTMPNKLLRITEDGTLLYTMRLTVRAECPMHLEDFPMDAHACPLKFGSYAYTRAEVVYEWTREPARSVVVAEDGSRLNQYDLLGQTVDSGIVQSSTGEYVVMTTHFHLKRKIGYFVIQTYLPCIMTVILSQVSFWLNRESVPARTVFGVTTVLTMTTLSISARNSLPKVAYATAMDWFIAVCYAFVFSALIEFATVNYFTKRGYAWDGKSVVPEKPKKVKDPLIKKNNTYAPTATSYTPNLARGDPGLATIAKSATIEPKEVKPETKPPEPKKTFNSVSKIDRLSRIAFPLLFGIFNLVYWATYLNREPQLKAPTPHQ
Chain of Gamma-aminobutyric acid receptor subunit alpha-1/alpha-2/beta-2/gamma-2 (P47870 whole entry): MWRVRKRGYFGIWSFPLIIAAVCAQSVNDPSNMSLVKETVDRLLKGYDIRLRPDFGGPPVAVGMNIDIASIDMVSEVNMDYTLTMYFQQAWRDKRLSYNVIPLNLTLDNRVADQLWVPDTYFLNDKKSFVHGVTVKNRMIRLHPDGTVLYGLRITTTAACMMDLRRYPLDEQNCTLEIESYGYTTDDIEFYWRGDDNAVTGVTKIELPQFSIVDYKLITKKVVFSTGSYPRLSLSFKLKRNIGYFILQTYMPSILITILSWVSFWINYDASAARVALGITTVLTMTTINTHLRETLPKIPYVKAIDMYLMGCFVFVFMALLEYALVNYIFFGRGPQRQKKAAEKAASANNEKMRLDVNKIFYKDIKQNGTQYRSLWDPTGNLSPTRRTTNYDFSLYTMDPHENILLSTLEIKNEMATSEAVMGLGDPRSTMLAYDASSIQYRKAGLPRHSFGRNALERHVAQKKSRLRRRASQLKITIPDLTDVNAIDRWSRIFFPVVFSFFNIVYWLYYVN
Chain of Gamma-aminobutyric acid receptor subunit alpha-1/alpha-2/beta-2/gamma-2 (P18507 whole entry): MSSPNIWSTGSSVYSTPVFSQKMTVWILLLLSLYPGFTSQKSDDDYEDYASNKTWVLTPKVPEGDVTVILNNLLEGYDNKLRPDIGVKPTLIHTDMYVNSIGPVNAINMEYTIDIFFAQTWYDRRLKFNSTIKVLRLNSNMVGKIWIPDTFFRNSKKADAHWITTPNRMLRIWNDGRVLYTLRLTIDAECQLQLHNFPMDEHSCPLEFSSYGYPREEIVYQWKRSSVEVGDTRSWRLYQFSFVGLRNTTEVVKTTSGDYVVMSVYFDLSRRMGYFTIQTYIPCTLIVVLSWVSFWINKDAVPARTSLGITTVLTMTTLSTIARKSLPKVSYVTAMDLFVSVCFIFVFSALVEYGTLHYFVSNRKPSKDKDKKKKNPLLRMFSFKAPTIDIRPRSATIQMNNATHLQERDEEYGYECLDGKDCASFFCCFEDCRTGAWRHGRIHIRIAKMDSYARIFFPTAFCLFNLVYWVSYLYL
Chain of Gamma-aminobutyric acid receptor subunit alpha-1/alpha-2/beta-2/gamma-2 (P47869 whole entry): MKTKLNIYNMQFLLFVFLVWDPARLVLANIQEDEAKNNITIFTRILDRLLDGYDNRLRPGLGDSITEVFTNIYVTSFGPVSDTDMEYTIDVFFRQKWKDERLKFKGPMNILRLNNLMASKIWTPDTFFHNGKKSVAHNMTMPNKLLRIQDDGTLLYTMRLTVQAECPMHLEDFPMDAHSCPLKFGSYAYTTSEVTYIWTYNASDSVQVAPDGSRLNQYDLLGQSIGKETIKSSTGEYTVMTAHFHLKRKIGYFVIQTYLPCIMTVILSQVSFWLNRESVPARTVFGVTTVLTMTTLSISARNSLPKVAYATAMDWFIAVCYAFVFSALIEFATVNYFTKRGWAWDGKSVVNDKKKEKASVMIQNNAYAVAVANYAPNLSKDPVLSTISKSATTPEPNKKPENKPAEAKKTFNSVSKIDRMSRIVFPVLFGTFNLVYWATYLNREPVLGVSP
Chain of 5-hydroxytryptamine receptor 6 (P50406 whole entry): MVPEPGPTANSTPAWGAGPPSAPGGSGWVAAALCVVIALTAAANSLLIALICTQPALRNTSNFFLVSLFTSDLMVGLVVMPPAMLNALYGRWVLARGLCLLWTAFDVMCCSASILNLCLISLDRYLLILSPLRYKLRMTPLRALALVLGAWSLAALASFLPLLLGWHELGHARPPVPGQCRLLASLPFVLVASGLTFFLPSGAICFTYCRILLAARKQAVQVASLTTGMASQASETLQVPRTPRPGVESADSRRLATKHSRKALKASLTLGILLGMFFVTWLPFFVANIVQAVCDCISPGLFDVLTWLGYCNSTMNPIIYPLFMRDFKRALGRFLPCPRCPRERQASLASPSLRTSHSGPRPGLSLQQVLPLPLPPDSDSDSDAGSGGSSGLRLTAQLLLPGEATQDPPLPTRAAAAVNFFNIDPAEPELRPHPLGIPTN
Chain of Gamma-aminobutyric acid type B receptor subunit 1 (Q9UBS5 whole entry): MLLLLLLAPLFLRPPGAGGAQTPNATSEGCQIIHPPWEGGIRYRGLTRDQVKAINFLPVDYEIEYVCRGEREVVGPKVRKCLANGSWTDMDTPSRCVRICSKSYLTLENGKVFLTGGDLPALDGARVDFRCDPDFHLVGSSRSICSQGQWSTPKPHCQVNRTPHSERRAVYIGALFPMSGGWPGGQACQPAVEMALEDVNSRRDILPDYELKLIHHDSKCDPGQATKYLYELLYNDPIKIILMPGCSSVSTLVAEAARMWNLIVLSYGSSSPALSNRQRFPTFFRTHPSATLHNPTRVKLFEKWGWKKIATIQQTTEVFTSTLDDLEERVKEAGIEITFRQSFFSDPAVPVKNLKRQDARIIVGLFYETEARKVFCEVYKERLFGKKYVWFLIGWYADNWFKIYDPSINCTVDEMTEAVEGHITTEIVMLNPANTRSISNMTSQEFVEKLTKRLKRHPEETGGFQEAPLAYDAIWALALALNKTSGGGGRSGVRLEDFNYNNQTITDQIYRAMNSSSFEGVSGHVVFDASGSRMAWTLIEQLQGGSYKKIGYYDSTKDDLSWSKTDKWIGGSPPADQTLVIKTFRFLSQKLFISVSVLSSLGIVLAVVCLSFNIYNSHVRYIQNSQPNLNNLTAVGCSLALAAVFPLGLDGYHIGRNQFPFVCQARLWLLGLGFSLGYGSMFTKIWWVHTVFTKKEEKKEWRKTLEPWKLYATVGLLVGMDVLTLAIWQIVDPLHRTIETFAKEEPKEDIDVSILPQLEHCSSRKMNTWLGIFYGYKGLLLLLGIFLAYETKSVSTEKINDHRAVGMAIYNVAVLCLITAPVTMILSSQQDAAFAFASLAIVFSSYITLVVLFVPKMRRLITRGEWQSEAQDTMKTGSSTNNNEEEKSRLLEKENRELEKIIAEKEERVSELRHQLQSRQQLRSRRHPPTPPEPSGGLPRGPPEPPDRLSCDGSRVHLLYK
Chain of Histamine H2 receptor (P25021 whole entry): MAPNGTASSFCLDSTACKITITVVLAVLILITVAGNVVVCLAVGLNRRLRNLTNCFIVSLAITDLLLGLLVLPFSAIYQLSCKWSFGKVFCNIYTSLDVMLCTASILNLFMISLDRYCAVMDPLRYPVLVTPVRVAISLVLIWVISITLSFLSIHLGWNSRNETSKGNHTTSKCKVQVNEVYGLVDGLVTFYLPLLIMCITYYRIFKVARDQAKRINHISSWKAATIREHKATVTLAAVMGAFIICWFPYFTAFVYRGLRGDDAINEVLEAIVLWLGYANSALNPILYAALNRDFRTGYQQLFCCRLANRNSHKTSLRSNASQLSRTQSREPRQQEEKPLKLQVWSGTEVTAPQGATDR

Compound: [H]/N=C(/N)N/C(=N/[H])NCCc1ccccc1 [PHENFORMIN]
- AC50 [1]: > 10 µM
- AC50 [2]: > 30 µM
- AC50 [3]: > 30 µM

Compound: CCCN[C@H]1CCc2nc(N)sc2C1 [PRAMIPEXOLE]
- AC50 [1]: 3.86 µM

Compound: CCC(=O)O[C@]1(C(=O)SCF)[C@H](C)C[C@H]2[C@@H]3C[C@H](F)C4=CC(=O)C=C[C@]4(C)[C@@]3(F)[C@@H](O)C[C@@]21C [FLUTICASONE PROPIONATE]
- AC50 [4]: > 10 µM
- AC50 [1]: > 10 µM
- AC50 [5]: > 10 µM
- AC50 [6]: > 10 µM
- AC50 [3]: > 30 µM

Compound: CC12CC3CC(C)(C1)CC(N)(C3)C2 [MEMANTINE]
- AC50 [7]: > 30 µM
- AC50 [2]: > 30 µM
- AC50 [3]: 20.1 µM

Compound: CC(C)COCC(CN(Cc1ccccc1)c1ccccc1)N1CCCC1 (stereo not given) [BEPRIDIL]
- AC50 [8]: 2.1 µM
- AC50 [2]: > 30 µM
- AC50 [9]: > 30 µM
- AC50 [3]: 11.9 µM

Compound: CCC1(c2ccccc2)CCC(=O)NC1=O (stereo not given) [GLUTETHIMIDE]
- AC50 [8]: > 50 µM

Compound: CCC(C)C(CC)C(N)=O (stereo not given) [VALNOCTAMIDE]
- AC50 [10]: > 30 µM
- AC50 [11]: > 30 µM
- AC50 [7]: > 30 µM
- AC50 [12]: > 30 µM

Compound: CCOC(=O)C1=C(C)NC(C)=C(C(=O)OC)C1c1cccc([N+](=O)[O-])c1 (stereo not given) [NITRENDIPINE]
- AC50 [8]: 5 µM
- AC50 [1]: > 10 µM
- AC50 [2]: > 30 µM
- AC50 [3]: 15.1 µM

Compound: C/N=C(\NC)NCc1ccccc1 [BETHANIDINE]
- AC50 [10]: > 30 µM
- AC50 [9]: > 30 µM

Compound: C[C@H](Cc1ccc(O)c(O)c1)[C@@H](C)Cc1ccc(O)c(O)c1 [MASOPROCOL]
- AC50 [7]: > 30 µM
- AC50 [9]: > 30 µM

Compound: CCC[C@H](NC(=O)[C@@H]1[C@H]2CCC[C@H]2CN1C(=O)[C@@H](NC(=O)[C@@H](NC(=O)c1cnccn1)C1CCCCC1)C(C)(C)C)C(=O)C(=O)NC1CC1
- AC50 [1]: > 10 µM
- AC50 [3]: > 30 µM

Compound: Cc1cc(C(C)(C)C)cc(C)c1CC1=NCCN1 [XYLOMETAZOLINE]
- AC50 [10]: > 30 µM

Compound: OC1(c2ccc(Cl)cc2)c2ccccc2C2=NCCN21 (stereo not given) [MAZINDOL]
- AC50 [4]: > 10 µM
- AC50 [8]: > 50 µM
- AC50 [1]: > 10 µM
- AC50 [13]: > 10 µM
- AC50 [5]: > 10 µM
- AC50 [11]: > 30 µM
- AC50 [2]: > 30 µM
- AC50 [14]: > 10 µM
- AC50 [6]: > 10 µM
- AC50 [15]: > 10 µM
- AC50 [12]: > 30 µM
- AC50 [3]: > 30 µM

Compound: Oc1ccc2c(c1)CC[C@H](c1ccccc1)[C@@H]2c1ccc(OCCN2CCCC2)cc1 [LASOFOXIFENE]
- AC50 [11]: 23 µM
- AC50 [9]: > 30 µM
- AC50 [12]: > 30 µM

Compound: Clc1ccc2c(N3CCN(CCCN4CCN(c5ccnc6cc(Cl)ccc56)CC4)CC3)ccnc2c1 [PIPERAQUINE]
- AC50 [11]: > 30 µM
- AC50 [12]: > 30 µM

Compound: CCC(C)C1(CC)C(=O)NC(=O)NC1=O (stereo not given) [BUTABARBITAL]
- AC50 [11]: > 30 µM
- AC50 [9]: > 30 µM
- AC50 [12]: > 30 µM

Compound: CC(=O)N[C@@H](CS)C(=O)O [ACETYLCYSTEINE]
- AC50 [7]: > 30 µM

Compound: CN1CCN(C2=Nc3ccccc3Oc3ccc(Cl)cc32)CC1 [LOXAPINE]
- AC50 [4]: > 10 µM
- AC50 [13]: > 10 µM
- AC50 [5]: 0.0144 µM
- AC50 [2]: > 30 µM
- AC50 [14]: 0.0574 µM
- AC50 [6]: 0.169 µM
- AC50 [15]: 0.732 µM
- AC50 [3]: > 30 µM

Compound: O=C(O)c1cn(C2CC2)c2cc(N3CCNCC3)c(F)cc2c1=O [CIPROFLOXACIN]
- AC50 [4]: > 10 µM
- AC50 [2]: > 30 µM

Compound: C[C@]12CC[C@@H]3c4ccc(O)cc4C[C@@H](CCCCCCCCC[S+]([O-])CCCC(F)(F)C(F)(F)F)[C@H]3[C@@H]1CC[C@@H]2O (stereo not given in full) [FULVESTRANT]
- AC50 [8]: > 10 µM
- AC50 [10]: > 30 µM
- AC50 [7]: > 30 µM
- AC50 [9]: > 30 µM
- AC50 [12]: > 30 µM

Compound: CC(CCc1ccc(O)cc1)NCCc1ccc(O)c(O)c1 (stereo not given) [DOBUTAMINE]
- AC50 [4]: > 10 µM
- AC50 [1]: > 10 µM
- AC50 [5]: 2.42 µM
- AC50 [2]: > 30 µM
- AC50 [6]: 0.0704 µM
- AC50 [3]: > 30 µM

Compound: Cc1cccc(N2CC(CO)OC2=O)c1 (stereo not given) [TOLOXATONE]
- AC50 [11]: > 30 µM
- AC50 [12]: > 30 µM

Compound: O=[N+]([O-])c1ccc(O)c2ncccc12 [NITROXOLINE]
- AC50 [10]: > 30 µM

Compound: COCC1=C(C(=O)O)N2C(=O)[C@@H](NC(=O)/C(=N\OC)c3csc(N)n3)[C@H]2SC1 [CEFPODOXIME]
- AC50 [11]: > 30 µM
- AC50 [12]: > 30 µM

Compound: CN(C)CCCNc1c2ccccc2nc2cccc([N+](=O)[O-])c12 [NITRACRINE]
- AC50 [11]: > 30 µM
- AC50 [12]: > 30 µM

Compound: Cc1cnc(C(=O)NCCc2ccc(S(=O)(=O)NC(=O)NC3CCCCC3)cc2)cn1 [GLIPIZIDE]
- AC50 [4]: > 10 µM
- AC50 [1]: > 10 µM
- AC50 [13]: > 10 µM
- AC50 [5]: > 10 µM
- AC50 [2]: > 30 µM
- AC50 [14]: > 10 µM
- AC50 [6]: > 10 µM
- AC50 [15]: > 10 µM
- AC50 [3]: > 30 µM

Compound: CC(C)NCC(O)c1ccc(O)c(O)c1 (stereo not given) [ISOPROTERENOL]
- AC50 [4]: > 10 µM
- AC50 [1]: > 10 µM
- AC50 [5]: > 10 µM
- AC50 [2]: > 30 µM

Compound: CN1CCC(=C2c3ccccc3CCc3cccnc32)CC1 [AZATADINE]
- AC50 [7]: > 30 µM

Compound: C=CCNc1nc(NCC=C)nc(N2CCN(C(c3ccc(F)cc3)c3ccc(F)cc3)CC2)n1 [ALMITRINE]
- AC50 [11]: > 30 µM
- AC50 [12]: > 30 µM

Compound: CC(N)C(O)c1ccccc1 (stereo not given) [PHENYLPROPANOLAMINE]
- AC50 [4]: > 10 µM
- AC50 [1]: > 10 µM
- AC50 [13]: > 10 µM
- AC50 [5]: > 10 µM
- AC50 [14]: > 10 µM
- AC50 [6]: > 10 µM
- AC50 [15]: > 10 µM
- AC50 [3]: > 30 µM
